Measured values taken from US9963461B2, “Phillygenin ibuprofen ester, preparation method therefor, and application thereof” (priority 2014, dated 2018).
Marks after values point to notes of the source that are not given here.

How the values were obtained:
[1] = system: rat toe swelling induced by carrageenan; test: Rat toe swelling induced by carrageenan; type: in vivo, Wistar rats; settings: 300 mg/kg sublingual intravenous injection
Description: The test groups were administered by sublingual intravenous injection. Before the test, capillary magnification measurement method was used to measure the normal volume of the right hind foot of the rats in each group. To avoid errors, the measurement location was fixed and the operation was made by one person both before and after the administration. The average value of the two measurements was taken as the normal volume of the right hind foot of the rats before administration. […] The difference between the groups was compared by inter-group t test processing through the difference percentage (swelling ratio) of the paw volume before and after the induced rat inflammation.

[2] = system: Herpes Simplex Virus type I (HSV-1); test: Impact of the drugs on the virus-induced cytopathy (MTT); type: cell-based; settings: HSV-I 100 TCID50, Vero cells, about the maximal non-cytotoxic concentration, 72 hours
[3] = system: Adenovirus (AdV); test: as above; type: cell-based; settings: ADV 100 TCID50, Vero cells, about the maximal non-cytotoxic concentration, 72 hours
[4] = system: parainfluenza virus; test: as above; type: cell-based; settings: parainfluenza virus 100 TCID50, Vero cells, about the maximal non-cytotoxic concentration, 72 hours
[5] = system: Enterovirus EV71; test: as above; type: cell-based; settings: EV71 100 TCID50, Vero cells, about the maximal non-cytotoxic concentration, 72 hours
[6] = system: beer yeast induced rat fever; test: Beer yeast induced rat fever; type: in vivo, Wistar rats; settings: 300 mg/kg
Description: Male Wistar rats were selected, weighing 180-200 g. Before the test, WSC-411P portable digital thermometer was used to measure the normal rectal temperature twice (with certain interval for each time), and the average value of the two measurements was taken as the normal body temperature of the rat. Then 70 rats with the body temperature between 36.5° C. and 38° C. were chosen to be randomly divided into 7 groups by weight: the model (0.5% carboxymethylcellulose) group, the 2.5, 5, and 10 mg/kg phillygenin ibuprofen ester groups, the positive drug paracetamol (100 mg/kg) group, the ibuprofen group (i.e. prodrug control group, 300 mg/kg), the phillygenin group (100 mg/kg), with 10 rats for each group. Each group of rats were subjected to back subcutaneous injection with 10% fresh beer yeast suspension of 10 ml/kg to induce heat. After administration of 10% fresh beer yeast suspension for 6.0 h, phillygenin ibuprofen ester and paracetamol were both subjected to intragastric administration, and the model group was intragastrically administrated with equal volume of 0.5% carboxymethylcellulose. Rectal temperature was measured after 1 h, 2 h, 3 h and 4 h of the administration respectively. Changes in the body temperature were observed and difference between the groups was compared by inter-group t test processing through antipyretic percentage.

[7] = system: influenza virus; test: Impact of the drugs on the virus-induced cytopathy (MTT); type: cell-based; settings: influenza virus 100 TCID50, Vero cells, about the maximal non-cytotoxic concentration, 72 hours
[8] = system: rabbit fever induced by typhoid and paratyphoid vaccine; test: Rabbit fever induced by typhoid and paratyphoid vaccine; type: in vivo, Japanese white rabbits; settings: 300 mg/kg
Description: Japanese male big-ear white rabbits, weighing 1.5-2.0 kg. Before the test, WSC-411P portable digital thermometer was used to measure the normal rectal temperature twice (with certain interval for each time), and the average value was taken as the normal body temperature. Then 48 Japanese big-ear white rabbits with body temperature of 38-39.6° C. were selected and randomly divided into 8 groups by weight, namely: the blank control (normal saline) group, the model control (0.5% carboxymethylcellulose) group, the ibuprofen group (300 mg/kg), the phillygenin group (10 mg/kg), the 1.25, 2.5, and 5 mg/kg phillygenin ibuprofen ester groups and the positive drug paracetamol (50 mg/kg) group. The rabbits were fixed in a fixator. The blank control group was intravenously injected with normal saline of 1 ml/kg via the ear margin; The model control group and the drug groups were intravenously injected with typhoid and paratyphoid vaccines of 0.8 ml/kg via the ear margin. When the body temperature rise of the rabbits was greater than 1° C. (requiring about 1-1.5 h, which was restricted to 1 h in this test), the blank control group and the model group were administered intragastrically with 0.5% carboxymethycellulose of 1 ml/kg, and the drug groups were administered intragastrically with phillygenin ibuprofen ester and paracetamol. […]

[9] = system: respiratory syncytial virus (RSV); test: Impact of the drugs on the virus-induced cytopathy (MTT); type: cell-based; settings: RSV 100 TCID50, Vero cells, about the maximal non-cytotoxic concentration, 72 hours
[10] = time after administration (min) 30
[11] = time after administration (min) 60
[12] = time after administration (min) 90
[13] = time after administration (min) 120
[14] = time after administration (min) 180

## CC(C)Cc1ccc(C(C)C(=O)O)cc1 (stereo not shown) [Ibuprofen]
[1]; 30 min
  Swelling ratio (%): 0.110 ± 0.119 %
[1]; 60 min
  Swelling ratio (%): 0.151 ± 0.172 %
[1]; 120 min
  Swelling ratio (%): 0.210 ± 0.178 %
[1]; 180 min
  Swelling ratio (%): 0.330 ± 0.337 %
[1]; 240 min
  Swelling ratio (%): 0.4600 ± 0.289 %
[1]; 300 min
  Swelling ratio (%): 0.681 ± 0.369%
[1]; 360 min
  Swelling ratio (%): 0.623 ± 0.338 %
[2]
  antiviral effective rate (ER %): 84.30** %
[3]
  antiviral effective rate (ER %): 50.61%
[4]
  antiviral effective rate (ER %): 80.72** %
[5]
  antiviral effective rate (ER %): 75.86** %
[6]; 1 h after administration
  Body temperature (° C.): 39.21 ± 0.11 °C
  antipyretic percentage (%): −1.05 ± 0.54 %
[6]; 2 h after administration
  Body temperature (° C.): 38.92 ± 0.35 °C
  antipyretic percentage (%): −1.7 ± 0.77 %
[6]; 3 h after administration
  Body temperature (° C.): 38.71 ± 0.20 °C
  antipyretic percentage (%): −2.32 ± 1.41 %
[6]; 4 h after administration
  Body temperature (° C.): 38.49 ± 0.51 °C
  antipyretic percentage (%): −2.88 ± 1.50 %
[7]
  antiviral effective rate (ER %): 75.35** %
[8]; [10]
  Body temperature (° C.): 40.74 ± 0.52 °C
  antipyretic percentage (%): −0.90 ± 0.41 %
[8]; [11]
  Body temperature (° C.): 40.56 ± 0.40 °C
  antipyretic percentage (%): −1.35 ± 0.11 %
[8]; [12]
  Body temperature (° C.): 40.07 ± 0.44 °C
  antipyretic percentage (%): −2.52 ± 0.13 %
[8]; [13]
  Body temperature (° C.): 39.88 ± 0.55 °C
  antipyretic percentage (%): −3.00 ± 0.23 %
[8]; [14]
  Body temperature (° C.): 39.77 ± 0.53 °C
  antipyretic percentage (%): −3.25 ± 0.29 %
[9]
  antiviral effective rate (ER %): 80.88** %
